{
  "source": "paper PMC8776995",
  "about": "(Frontiers in Chemistry, 2022)",
  "key": {"[1]": {"experiment": "Body mass of PC-9 tumor-bearing NSG mice after treatment", "details": "for Change in body weight: individual animals", "experimental": "PC-9 xenografts were established by subcutaneous transplantation of cancer cells into the flanks of NSG mice (male, 4–6-week old). […] Tumor volumes were measured using calipers and calculated with the formula: V = length × width^2/2. The mouse body mass was recorded as well. 19 days after inoculation, the mice were sacrificed and the tumors were harvested and weighed."}, "[2]": {"system": "AKT phosphorylation (S473) in H460 cells", "experiment": "Western blot, p-AKT/AKT in H460", "details": "for p-AKT/AKT: band density ratio; for p-AKT/AKT relative to DMSO: ratio normalised to DMSO; for phosphorylation of AKT (western blot): H460, especially at 10 μM", "protocol": "We also performed western blot analysis to evaluate the impact of e4 and e12 on EGFR signaling in PC-9 and H460 cells.\nH460 cells were seeded in six-well plates with serum-free medium overnight, and then treated complete medium containing 0.1% DMSO, various concentrations (0.1, 1 and 10 μM) of either compound e4 or e12 for 2 h, respectively. […] Then the H460 cells were treated with complete medium containing EGF (10 ng/ml) for 5 min. Then the cells were harvested and washed with PBS, centrifuged, resuspended in 100–200 μl of RIPA lysis buffer containing Protease and Phosphatase Inhibitor Cocktail (1X), and then centrifuged for 5 min at 12,000 rpm at 4°C. The supernatant was used for protein analysis. […] Then the membrane was washed 5 min (X3) and incubated at 1:3,000 dilution of anti-rabbit secondary antibodies or 1:1,000 dilution of anti-mouse secondary antibodies for 1 h at RT. After washing with TBST 5 min (X3), protein bands were developed by chemiluminescence. The protein levels were quantified by the gray values of the bands in the resulting images by ImageJ, and the control group was used as the standard. […] The PC-9 cells were harvested and analyzed as above."}, "PC-9 xenograft": {"system": "PC-9 xenograft", "experiment": "In vivo antitumor activity, PC-9 xenograft in NSG mice", "design": "species or system mouse", "experimental": "The mouse body mass was recorded as well."}},
  "note": "Values joined by “and” are separate entries in the source; they are usually repeats but may differ in a detail not shown here. Identical values can stand only once.",
  "data": [
    {"smiles": "COCCOc1cc2ncnc(Nc3cccc(-c4cn(Cc5cc(Br)cc(Br)c5)nn4)c3)c2cc1OCCOC", "note": "[e4, [6,7-Bis-(2-methoxy-ethoxy)-quinazolin-4-yl]-{3-[1-(3,5-dibromo-benzyl)-1H-[1,2,3]triazol-4-yl]-phenyl}-amine]", "values": [
      {"measurement": "Body weigh", "setting": "[1]; Day13, individual animals", "result": "27 g and 25.6 g and 24.1 g and 27.3 g and 28.8 g"},
      {"measurement": "Body weigh", "setting": "[1]; Day15, individual animals", "result": "25.7 g and 26.2 g and 25.9 g and 27.3 g and 29 g"},
      {"measurement": "Change in body weight", "setting": "[1]; Day15 vs previous weighing", "result": "-4.815% and 2.344% and 7.469% and 0% and 0.6944%"},
      {"measurement": "Body weigh", "setting": "[1]; Day17, individual animals", "result": "26 g and 23.9 g and 26.1 g and 27.3 g and 29.1 g"},
      {"measurement": "Change in body weight", "setting": "[1]; Day17 vs previous weighing", "result": "1.167% and -8.779% and 0.7722% and 0% and 0.3448%"},
      {"measurement": "Body weigh", "setting": "[1]; Day19, individual animals", "result": "25.9 g and 26 g and 26.2 g and 27.1 g and 29.1 g"},
      {"measurement": "Change in body weight", "setting": "[1]; Day19 vs previous weighing", "result": "-0.3846% and 8.787% and 0.3831% and -0.7326% and 0%"},
      {"measurement": "p-AKT/AKT", "setting": "[2]; H460, 0.1 uM", "result": 1.245},
      {"measurement": "p-AKT/AKT relative to DMSO", "setting": "[2]; H460, 0.1 uM", "result": 1.252},
      {"measurement": "p-AKT/AKT", "setting": "[2]; H460, 1 uM", "result": 0.733},
      {"measurement": "p-AKT/AKT relative to DMSO", "setting": "[2]; H460, 1 uM", "result": 0.7369},
      {"measurement": "p-AKT/AKT", "setting": "[2]; H460, 10 uM", "result": 1.039},
      {"measurement": "p-AKT/AKT relative to DMSO", "setting": "[2]; H460, 10 uM", "result": 1.044},
      {"measurement": "phosphorylation of AKT (western blot)", "setting": "[2]", "result": "suppressed"},
      {"measurement": "tumor volume mean", "setting": "PC-9 xenograft; Day13, group mean", "result": 63.4029, "unit": "mm3"},
      {"measurement": "tumor length", "setting": "PC-9 xenograft; Day13, individual animals", "result": "5.08 mm and 6.5 mm and 4.8 mm and 6.3 mm and 6.04 mm and 5.8 mm and 7.4 mm and 6.1 mm"},
      {"measurement": "tumor volume", "setting": "PC-9 xenograft; Day13, individual animals", "result": "59.9938 mm3 and 60.0925 mm3 and 44.376 mm3 and 55.566 mm3 and 68.426 mm3 and 38.5875 mm3 and 71.3446 mm3 and 78.292 mm3 and 93.9476 mm3"},
      {"measurement": "tumor width", "setting": "PC-9 xenograft; Day13, individual animals", "result": "4.86 mm and 4.3 mm and 4.2 mm and 4.76 mm and 3.5 mm and 4.96 mm and 4.6 mm and 5.55 mm"},
      {"measurement": "tumor volume mean", "setting": "PC-9 xenograft; Day15, group mean", "result": 44.2866, "unit": "mm3"},
      {"measurement": "tumor length", "setting": "PC-9 xenograft; Day15, individual animals", "result": "3.97 mm and 5.56 mm and 5.73 mm and 4.91 mm and 4.11 mm and 5.48 mm and 4.95 mm and 6.93 mm and 5.72 mm"},
      {"measurement": "tumor volume", "setting": "PC-9 xenograft; Day15, individual animals", "result": "23.9012 mm3 and 57.8062 mm3 and 55.2146 mm3 and 35.078 mm3 and 33.0446 mm3 and 32.9921 mm3 and 21.979 mm3 and 91.1881 mm3 and 47.3756 mm3"},
      {"measurement": "tumor width", "setting": "PC-9 xenograft; Day15, individual animals", "result": "3.47 mm and 4.56 mm and 4.39 mm and 3.78 mm and 4.01 mm and 2.98 mm and 5.13 mm and 4.07 mm"},
      {"measurement": "tumor volume mean", "setting": "PC-9 xenograft; Day17, group mean", "result": 35.7355, "unit": "mm3"},
      {"measurement": "tumor length", "setting": "PC-9 xenograft; Day17, individual animals", "result": "3.7 mm and 7.6 mm and 4.76 mm and 5.8 mm and 4.94 mm and 4.9 mm and 5.1 mm and 4.6 mm"},
      {"measurement": "tumor volume", "setting": "PC-9 xenograft; Day17, individual animals", "result": "17.7785 mm3 and 54.872 mm3 and 38.4618 mm3 and 25.4086 mm3 and 28.0515 mm3 and 47.432 mm3 and 38.7855 mm3 and 30.2575 mm3 and 40.572 mm3"},
      {"measurement": "tumor width", "setting": "PC-9 xenograft; Day17, individual animals", "result": "3.1 mm and 3.8 mm and 4.02 mm and 2.96 mm and 3.37 mm and 4.4 mm and 3.9 mm and 3.5 mm and 4.2 mm"},
      {"measurement": "tumor volume mean", "setting": "PC-9 xenograft; Day19, group mean", "result": 22.669, "unit": "mm3"},
      {"measurement": "Tumor weight", "setting": "PC-9 xenograft; Day19, individual animals", "result": "0.07 g and 0.02 g and 0.04 g and 0.03 g"},
      {"measurement": "tumor length", "setting": "PC-9 xenograft; Day19, individual animals", "result": "4.55 mm and 5.74 mm and 3.59 mm and 2.83 mm and 2.52 mm and 3 mm and 4.51 mm and 5.54 mm and 4.24 mm"},
      {"measurement": "tumor volume", "setting": "PC-9 xenograft; Day19, individual animals", "result": "7.871 mm3 and 60.7292 mm3 and 20.5068 mm3 and 2.813 mm3 and 5.663 mm3 and 9.6774 mm3 and 39.0241 mm3 and 23.1353 mm3 and 34.6018 mm3"},
      {"measurement": "tumor width", "setting": "PC-9 xenograft; Day19, individual animals", "result": "1.86 mm and 4.6 mm and 3.38 mm and 1.41 mm and 2.12 mm and 2.54 mm and 4.16 mm and 2.89 mm and 4.04 mm"}
    ]},
    {"smiles": "COCCOc1cc2ncnc(Nc3cccc(-c4cn(-c5ccc(C)cc5)nn4)c3)c2cc1OCCOC", "note": "[e12, [6,7-Bis-(2-methoxy-ethoxy)-quinazolin-4-yl]-[3-(1-p-tolyl-1H-[1,2,3]triazol-4-yl)-phenyl]-amine]", "values": [
      {"measurement": "melting point", "result": "95 to 98", "unit": "°C"},
      {"measurement": "p-AKT/AKT", "setting": "[2]; H460, 0.1 uM", "result": 1.267},
      {"measurement": "p-AKT/AKT relative to DMSO", "setting": "[2]; H460, 0.1 uM", "result": 1.274},
      {"measurement": "p-AKT/AKT", "setting": "[2]; H460, 1 uM", "result": 0.9055},
      {"measurement": "p-AKT/AKT relative to DMSO", "setting": "[2]; H460, 1 uM", "result": 0.9102},
      {"measurement": "p-AKT/AKT", "setting": "[2]; H460, 10 uM", "result": 0.594},
      {"measurement": "p-AKT/AKT relative to DMSO", "setting": "[2]; H460, 10 uM", "result": 0.5972},
      {"measurement": "phosphorylation of AKT (western blot)", "setting": "[2]", "result": "suppressed"}
    ]}
  ]
}
